The values that follow come from patent US11529323B2 (priority 2017, dated 2022).

Data set [1] can be described thus: Single dose AR-42 plasma and tissue pharmacokinetics in mouse. Type of data set: in vivo. To be noted: for Plasma exposure: tumor-free mice. The method, then: FIG. 1A is a graph showing results of a single dose AR-42 plasma and tissue pharmacokinetic study. Tumor-free […] mice were administered a single dose of 10 mg/kg, 20 mg/kg or 50 mg/kg AR-42 (n=3) and plasma (dashed) and gastrocnemius (solid) tissue analyzed for AR-42 content at different times using LC-MS/MS analyses according to Materials and Methods (Mean±SD). FIG. 1B is a graph showing AR-42 dose-response. Starting six days after C-26 cell injection, animals received vehicle or AR-42 orally at 10 or 20 mg/kg daily or 50 mg/kg every other day for 13 days (n=4-6). Day 18 bodyweights compared to Day 0, corrected for tumor mass according to the Materials and Methods. Bars represent mean±SD. *p<0.05, ****p<0.0001 versus tumor-bearing vehicle-treated controls, Tukey's multiple comparison test. FIG. 1C is a table showing AR-42's in vitro human HDAC inhibition profile determined using recombinant enzymatic assays. […] Longitudinal mean bodyweights per treatment group are presented as a percent change from pre-study body weights. Tumor-free animals (circles), tumor-bearing animals (bars). Inset: terminal tumor volumes (mean+SD, n=5-6 per group).
Pharmacokinetic studies were performed as previously described (Cheng H et al. AAPS J. 2016 18(3):737-45).
Pharmacokinetic studies were performed as previously described (Cheng H, et al. AAPS J. 2016 18(3):737-45) with the following modifications. Seven week-old, male, tumor-free CD2F1 mice (n=3 per dose and time point) were administered single oral doses of 10, 20 and 50 mg/kg AR-42 and then sacrificed 0.25, 4 and 24 hours later. Fifty mg of gastrocnemius muscle tissue was flash frozen in 2 mL Beadblaster™ 24 (MIDSCl; St. Louis, Mo.) tubes and stored at −80° C. Samples were homogenized for 6-cycles using a Beadblaster 24 with analytical standards in 1 mL methanol and then centrifuged at 13,000 rpm (4° C.) for 10 min. Supernatants were transferred to glass tubes, dried under nitrogen, then reconstituted in 200 μL 40% methanol/0.1% formic acid. Plasma preparation and LC-MS/MS analyses were performed as previously described (Sborov D W, et al. Leuk Lymphoma 2017 58(10):2310-8). Mouse plasma and muscle pharmacokinetic parameters were estimated as previously described with the exception of Cavg which was calculated as AUCall/[Dosing Interval(h)].

Data set [2] relates to C-26 colon adenocarcinoma cachexia model. In words: Confirmatory AR-42/GTx-024 combination study (Study 2), C-26 model. Type of data set: in vivo, mouse. On the procedure:
(§1) These studies were performed as previously described (Tseng Y C, et al. J Natl Cancer Inst. 2015 107(12):djv274) with modifications. Tumors were established in the right flank by subcutaneous injection of C-26 cells (0.5×10^6 cells in 0.1 mL). […] TFM-4AS-1 (a potent experimental SARM), dihydrotestosterone (DHT) and vehicles were administered by subcutaneous injection.
This confirmatory study was performed exactly as Study 1 with expanded animal numbers. Tumor-free control groups were maintained at 6 animals each, whereas 10 animals were included in each of the tumor-bearing groups. […] Grip strength was measured on study days 0 (baseline) and 16. Due to rapid model progression, this study was terminated after only 12 days of treatment.
(§2) Forelimb grip strength was measured using Bio-GS3 Grip Strength Test Meter (Forceleader DBA Bioseb, Pinellas Park, Fla.). Each mouse was held by the base of its tail and lowered over the apparatus until its forepaws grasped the metal pull bar. The mouse was then gently pulled horizontally in a straight line away from the grip strength meter until the mouse released the bar. The force applied to the bar at the moment of release was recorded as the peak force. Five measurements were taken from each mouse, the average of which was designated as the mouse's grip strength.

The test system is the same in data set [3]. In words: Combined androgen and AR-42 study (Study 3), C-26 model. Type of data set: in vivo, mouse. On the procedure:
as §1
Six days after cell injection, animals with palpable tumors were treated once daily for 13 days with vehicles for AR-42 and TFM-4AS-1/DHT (n=9), AR-42 (10 mg/kg; TFM-4AS-1/DHT vehicle; n=10), TFM-4AS-1 (10 mg/kg; AR-42 vehicle; n=9), DHT (3 mg/kg; AR-42 vehicle; n=10), the combination of AR-42 and TFM-4AS-1 (10 mg/kg each; n=9), or the combination of AR-42 (10 mg/kg) and DHT (3 mg/kg)(n=10). Grip strength was measured and tissues collected as in the previous studies.
as §2

For data set [4] the following is noted: Sborov et al. 2017; cited from earlier work.
The subject of the next data set is luteinizing hormone. In words: Serum luteinizing hormone radioimmunoassay, Study 1. Type of data set: in vivo, mouse. To be noted: Study 1, Day 18; C-26 tumor bearing mice; GTx-024 15 mg/kg. The method, then: FIG. 9A is a bar graph showing serum luteinizing hormone levels measured on Day 18. FIG. 9B is a graph showing per animal food consumption measured every two days. FIG. 9C is a plot showing spleen weights normalized to tumor mass-corrected terminal body weight. […], versus tumor-bearing vehicle-treated controls, Dunnett's multiple comparison test.
Luteinizing hormone (LH) was measured in serum by a two-site sandwich radioimmunoassay performed by the Ligand Assay and Analysis Core at the Center for Research in Reproduction, University of Virginia School of Medicine (Charlottesville, Va.). Serum was isolated by centrifugation (2000×g, 15 minutes) from whole blood samples collected from mice immediately post-mortem, and then stored at −80° C. until shipment on dry ice.

As to `CC(C)[C@H](C(=O)Nc1ccc(C(=O)NO)cc1)c1ccccc1` [AR-42, (S)—N-hydroxy-4-(3-methyl-2-phenylbutanamido)benzamide], the concentration at 4 h in data set [1] (male, mouse, in vivo, single oral dose 10 mg/kg, remained above for 4 hours, read-out: gastrocnemius muscle concentrations) is more than 700 nM. The “mouse plasma exposure at 50 mg/kg relative to well tolerated plasma exposure in humans” value in data set [1] (oral 50 mg/kg in mice versus 8.5 μM*h in humans) is listed as 8.7 fold. Besides, the Plasma exposure stood at 10.9 µM·h in data set [1] (single oral dose 10 mg/kg) and 74.3 µM·h in data set [1] (single oral dose 50 mg/kg). Also, the spleen mass result in data set [2] (Study 1 and 2, C-26 tumor-bearing, normalized to tumor-corrected terminal body weight) is on record as “either unchanged or slightly increased”. In data set [2] (Study 2, day 16, C-26 tumor-bearing), the forelimb grip strength result is recorded as “improved grip strength over vehicle-treated tumor-bearing controls”. In data set [2] (Study 2, AR-42 10 mg/kg), the “adipose or heart mass” value is on record as “had no impact on adipose or heart mass”. The “effect on gastrocnemius and quadriceps mass” value in data set [2] (Study 2, C-26 tumor-bearing, versus vehicle-treated tumor-bearing controls) is “significantly spared gastrocnemius and quadriceps mass”. In data set [3] (Study 3, Day 17, of baseline, C-26 tumor-bearing, AR-42 10 mg/kg oral, TFM-4AS-1 10 mg/kg s.c., DHT 3 mg/kg s.c.), the terminal body weight is 93.5±4.8. The “effect on mass of gastrocnemius or quadriceps” value in data set [3] (Study 3, monotherapy (TFM-4AS-1 10 mg/kg; AR-42 10 mg/kg)) is “did not significantly impact skeletal muscle masses”. In addition, in data set [4], the “well tolerated plasma exposure in humans” value is 8.5 µM·h.
With `C[C@](O)(COc1ccc(C#N)cc1)C(=O)Nc1ccc(C#N)c(C(F)(F)F)c1` [GTx-024, (2S)-3-(4-cyanophenoxy)-N-(4-cyano-3-(trifluoromethyl)phenyl)-2-hydroxy-2-methylpropanamide], the serum luteinizing hormone result in the data set on luteinizing hormone is reported as “suppression of serum luteinizing hormone”.
